# According to article PMC5582255, “Partial Purification and Characterization of the Recombinant Benzaldehyde Dehydrogenase from Rhodococcus ruber UKMP-5M” (Iranian Journal of Biotechnology, 2017):
# Test system: T1, BZDH (benzaldehyde dehydrogenase, xylC)
# T1 construct: xylC ORF of 792 bp, 264 aa, ~27 kDa, homologous to the C-terminal half of other aldehyde dehydrogenases; DEAE ion exchange; forward primer […]; (encodes MSPSPVPPR), reverse primer […]; (C-terminus ...DVPGYPF)
# Assay: NADH formation at […] nm, Lineweaver-Burk
# Format: biochemical, Rhodococcus ruber
# Conditions: co-substrate NAD (standard assay 5 mM, 50 mM glycine-NaOH); 25 °C; benzaldehyde 0.005-4 mM; pH of kinetic run not stated
smiles,measurement,value
O=Cc1ccccc1 [benzaldehyde],Km,4.2 mM
